From ChEMBL document CHEMBL4616582, “Green recipes to quinoline: A review” (Eur J Med Chem, 2019) come the findings set out here.

≈ marks a conversion by molar mass, not a printed value.

Assay [1] deals with Leishmania donovani. Nature of the assay: Antileishmanial activity against Leishmania donovani promastigotes. It is filed as functional, organism-based.
The subject of assay [2] is Leishmania donovani. Nature of the assay: Antileishmanial activity against Leishmania donovani amastigotes. It is filed as functional, organism-based.
Assay [3] deals with Plasmodium falciparum. Nature of the assay: Antimalarial activity against chloroquine and quinine sensitive Plasmodium falciparum. It is filed as functional, organism-based.
For assay [4], the system named is HepG2. Nature of the assay: Cytotoxicity against human HepG2 cells assessed as reduction in cell viability by MTT assay. It is filed as functional, cell-based. (Tetrazolium dyes change colour on reduction, which living cells bring about.)

A word on the IC50: it is the point on the concentration scale where inhibition reaches its midpoint. Turning to `CSC(=S)/C=C(\O)c1ccccc1Cl`, the IC50 in assay [1] and in assay [2] was 1.34 to 3.26 µg/mL (≈ 5.47 to 13.3 µM) in each case. `Cc1nn(-c2ccccc2)c(Oc2ccccc2F)c1C1C(C#N)=C(N)N(Nc2ccc(Cl)cc2)C2=C1C(=O)CC(C)(C)C2` (configuration not stated): the IC50 in assay [3] was 0.042 to 0.09 µg/mL (≈ 0.069 to 0.148 µM). Take `Cc1nn(-c2ccccc2)c(Oc2ccccc2F)c1C1C(C#N)=C(N)N(Nc2ccccc2)C2=C1C(=O)CC(C)(C)C2` (configuration not stated): the half-maximal inhibitory concentration (IC50) in assay [3] fell in the range of 0.042 to 0.09 µg/mL (≈ 0.0731 to 0.157 µM). In assay [3], `COc1ccc(NN2C(N)=C(C#N)C(c3c(C)nn(-c4ccccc4)c3Oc3ccccc3F)C3=C2CC(C)(C)CC3=O)cc1` (configuration not stated) displayed a concentration for half-maximal inhibition (IC50) of 0.042 to 0.09 µg/mL (≈ 0.0695 to 0.149 µM). The compound `Cc1nn(-c2ccccc2)c(Oc2cccc(F)c2)c1C1C(C#N)=C(N)N(Nc2ccccc2)C2=C1C(=O)CC(C)(C)C2` (configuration not stated) showed a concentration for half-maximal inhibition (IC50) in assay [3] of 0.042 to 0.09 µg/mL (≈ 0.0731 to 0.157 µM). Take `O=c1c2c(Cl)cc(Cl)c(F)c2n(-c2ccccc2)c2ss/c(=N\c3ccccc3)c12`: in assay [4], the concentration for half-maximal inhibition (IC50) stood at 984 nM. Still for that read-out and setting: the same measure for `CC(=O)c1ccc(F)cc1`: 984 nM; for `O=c1c2ccc(F)cc2n(-c2ccccc2)c2ss/c(=N\c3ccccc3)c12`: 984 nM. Same read-out and setting: the figure for `O=c1c2c(Cl)cccc2n(-c2ccccc2)c2ss/c(=N\c3ccccc3)c12` is 984 nM. For `COc1ccc(/C(O)=C/C(=S)SC)cc1`, the 50% inhibitory concentration (IC50) in assay [1] and in assay [2] was 1.34 to 3.26 µg/mL (≈ 5.58 to 13.6 µM) each time. As for `CC(=O)c1cc(Cl)ccc1Cl`, the IC50 in assay [4] worked out at 984 nM. For the compound `CSC(=S)/C=C(\O)c1cccs1`, the 50% inhibitory concentration (IC50) in assay [1] and in assay [2] was 1.34 to 3.26 µg/mL (≈ 6.19 to 15.1 µM) throughout. As to `O=c1c2ccc(Cl)cc2n(-c2ccccc2)c2ss/c(=N\c3ccccc3)c12`, in assay [4], the IC50 was determined as 984 nM. Still for that read-out and setting: the same measure for `S=C=Nc1ccccc1` [PHENYLISOTHIOCYANATE]: 984 nM. On the same count and under the same terms, the same measure for `CC(=O)c1ccc(Cl)cc1`: 984 nM.

`Cc1nn(-c2ccccc2)c(Oc2cccc(C(F)(F)F)c2)c1C1C(C#N)=C(N)N(Nc2ccc(F)cc2)C2=C1C(=O)CC(C)(C)C2` (configuration not stated): the IC50 in assay [3] was 0.042 to 0.09 µg/mL (≈ 0.0654 to 0.14 µM). In assay [3], `Cc1nn(-c2ccccc2)c(Oc2ccccc2F)c1C1C(C#N)=C(N)N(Nc2ccc(F)cc2)C2=C1C(=O)CC(C)(C)C2` (configuration not stated) displayed an IC50 of 0.042 to 0.09 µg/mL (≈ 0.0709 to 0.152 µM). On to `CSC(=S)/C=C(\O)c1ccc(C(F)(F)F)cc1`, for which the IC50 in assay [1] and in assay [2] was 1.34 to 3.26 µg/mL (≈ 4.81 to 11.7 µM) each time.

In the case of `Cc1nn(-c2ccccc2)c(Oc2cccc(C(F)(F)F)c2)c1C1C(C#N)=C(N)N(Nc2ccccc2)C2=C1C(=O)CC(C)(C)C2` (configuration not stated), the half-maximal inhibitory concentration (IC50) in assay [3] lay in the range of 0.042 to 0.09 µg/mL (≈ 0.0672 to 0.144 µM).

`Cc1nn(-c2ccccc2)c(Oc2cccc(C(F)(F)F)c2)c1C1C(C#N)=C(N)N(Nc2ccc(Br)cc2)C2=C1C(=O)CC(C)(C)C2` (configuration not stated) returned a concentration for half-maximal inhibition (IC50) in assay [3] of 0.042 to 0.09 µg/mL (≈ 0.0597 to 0.128 µM). `CSC(=S)/C=C(\O)c1ccco1`: the 50% inhibitory concentration (IC50) in assay [1] and in assay [2] was 1.34 to 3.26 µg/mL (≈ 6.69 to 16.3 µM) each time. Regarding `CC(C)=CCC[C@]1(C)C=Cc2c(O)c3c(c(CC=C(C)C)c2O1)O[C@]12C(=C[C@@H]4C[C@H]1C(C)(C)O[C@@]2(C/C=C(/C)C(=O)O)C4=O)C3=O` [GAMBOGIC ACID], the 50% inhibitory concentration (IC50) in assay [4] was found to be 1550 nM.

As for `Cc1nn(-c2ccccc2)c(Oc2ccccc2F)c1C1C(C#N)=C(N)N(Nc2ccc(Br)cc2)C2=C1C(=O)CC(C)(C)C2` (configuration not stated), in assay [3], the 50% inhibitory concentration (IC50) is 0.042 to 0.09 µg/mL (≈ 0.0643 to 0.138 µM). For `CSC(=S)/C=C(\O)c1cccc(C)c1`, the IC50 in assay [1] and in assay [2] was 1.34 to 3.26 µg/mL (≈ 5.97 to 14.5 µM) throughout. Regarding `Cc1ccc(Br)c2c(=O)c3/c(=N/c4ccccc4)ssc3n(-c3ccccc3)c12`, the half-inhibitory concentration (IC50) in assay [4] turned out to be 984 nM. In turn, `Cc1nn(-c2ccccc2)c(Oc2cccc(F)c2)c1C1C(C#N)=C(N)N(Nc2ccc(Br)cc2)C2=C1C(=O)CC(C)(C)C2` (configuration not stated) yielded an IC50 in assay [3] of 0.042 to 0.09 µg/mL (≈ 0.0643 to 0.138 µM). In assay [3], `COc1ccc(NN2C(N)=C(C#N)C(c3c(C)nn(-c4ccccc4)c3Oc3cccc(F)c3)C3=C2CC(C)(C)CC3=O)cc1` (configuration not stated) had a half-inhibitory concentration (IC50) of 0.042 to 0.09 µg/mL (≈ 0.0695 to 0.149 µM). For `C=C[C@H]1CN2CC[C@H]1C[C@H]2[C@H](O)c1ccnc2ccc(OC)cc12` [QUININE], inhibition in assay [3] was half-maximal at 0.268 µg/mL (≈ 0.826 µM) (IC50). The same measure, in the same setting: the figure for `Cc1nn(-c2ccccc2)c(Oc2cccc(F)c2)c1C1C(C#N)=C(N)N(Nc2ccc(F)cc2)C2=C1C(=O)CC(C)(C)C2` (configuration not stated) is 0.042 to 0.09 µg/mL (≈ 0.0709 to 0.152 µM).

Turning to `Nc1ccccc1C(=O)c1ccccc1`, the IC50 in assay [1] and in assay [2] was 1.34 to 3.26 µg/mL (≈ 6.79 to 16.5 µM) each time. As for `CSC(=S)/C=C(\O)c1ccccc1`, the IC50 in assay [1] and in assay [2] was 1.34 to 3.26 µg/mL (≈ 6.37 to 15.5 µM) throughout. As to `Cc1nn(-c2ccccc2)c(Oc2ccc(F)cc2)c1C1C(C#N)=C(N)N(Nc2ccc(Br)cc2)C2=C1C(=O)CC(C)(C)C2` (configuration not stated), the half-maximal inhibitory concentration (IC50) in assay [3] is 0.042 to 0.09 µg/mL (≈ 0.0643 to 0.138 µM). For `CC(=O)c1cc(C)ccc1Br`, the half-maximal inhibitory concentration (IC50) in assay [4] was 984 nM.

In assay [3], `Cc1nn(-c2ccccc2)c(Oc2ccc(F)cc2)c1C1C(C#N)=C(N)N(Nc2ccc(F)cc2)C2=C1C(=O)CC(C)(C)C2` (configuration not stated) registered a half-inhibitory concentration (IC50) of 0.042 to 0.09 µg/mL (≈ 0.0709 to 0.152 µM).

In assay [3], `Cc1nn(-c2ccccc2)c(Oc2ccc(F)cc2)c1C1C(C#N)=C(N)N(Nc2ccccc2)C2=C1C(=O)CC(C)(C)C2` (configuration not stated) returned an IC50 of 0.042 to 0.09 µg/mL (≈ 0.0731 to 0.157 µM). `Nc1ccc(Cl)cc1C(=O)c1ccccc1`: the IC50 in assay [1] and in assay [2] was 1.34 to 3.26 µg/mL (≈ 5.78 to 14.1 µM) throughout. In assay [3], `COc1ccc(NN2C(N)=C(C#N)C(c3c(C)nn(-c4ccccc4)c3Oc3cccc(C(F)(F)F)c3)C3=C2CC(C)(C)CC3=O)cc1` (configuration not stated) came in with an IC50 of 0.042 to 0.09 µg/mL (≈ 0.0642 to 0.137 µM). With `CCCCCCCCCCCCCCCCOP(=O)([O-])OCC[N+](C)(C)C` [MILTEFOSINE], the results for the concentration for half-maximal inhibition (IC50) in assay [1] and in assay [2] were 4.54 µg/mL (≈ 11.1 µM) and 8.2 µg/mL (≈ 20.1 µM), respectively.

Consider `CSC(=S)/C=C(\O)c1ccc(C)cc1`, for which the half-maximal inhibitory concentration (IC50) in assay [1] and in assay [2] was 1.34 to 3.26 µg/mL (≈ 5.97 to 14.5 µM) throughout. Take `O=c1c2c(Cl)ccc(Cl)c2n(-c2ccccc2)c2ss/c(=N\c3ccccc3)c12`: the concentration for half-maximal inhibition (IC50) in assay [4] was determined as 984 nM.

Take `CC(=O)c1ccc(Cl)c(Cl)c1`: the IC50 in assay [4] came out at 984 nM.
